Measured values: article PMC4759042, “The D‐amino acid transport by the invertebrate SLC6 transporters KAAT1 and CAATCH1 from Manduca sexta” (Physiological Reports, 2016)

Legend:
KAAT1 (msKAAT1) = target: T1, KAAT1 (msKAAT1) (Manduca sexta, UniProt O76188); experiment: two-electrode voltage clamp in oocytes, transport current; type: cell-based; details: NaCl 98 mmol/L, pH 7.6, -60 mV; main transport site, up to 300 μmol/L
T1 construct: full-length transporter from cRNA in Xenopus laevis oocytes
T1 sequence (O76188 1-634): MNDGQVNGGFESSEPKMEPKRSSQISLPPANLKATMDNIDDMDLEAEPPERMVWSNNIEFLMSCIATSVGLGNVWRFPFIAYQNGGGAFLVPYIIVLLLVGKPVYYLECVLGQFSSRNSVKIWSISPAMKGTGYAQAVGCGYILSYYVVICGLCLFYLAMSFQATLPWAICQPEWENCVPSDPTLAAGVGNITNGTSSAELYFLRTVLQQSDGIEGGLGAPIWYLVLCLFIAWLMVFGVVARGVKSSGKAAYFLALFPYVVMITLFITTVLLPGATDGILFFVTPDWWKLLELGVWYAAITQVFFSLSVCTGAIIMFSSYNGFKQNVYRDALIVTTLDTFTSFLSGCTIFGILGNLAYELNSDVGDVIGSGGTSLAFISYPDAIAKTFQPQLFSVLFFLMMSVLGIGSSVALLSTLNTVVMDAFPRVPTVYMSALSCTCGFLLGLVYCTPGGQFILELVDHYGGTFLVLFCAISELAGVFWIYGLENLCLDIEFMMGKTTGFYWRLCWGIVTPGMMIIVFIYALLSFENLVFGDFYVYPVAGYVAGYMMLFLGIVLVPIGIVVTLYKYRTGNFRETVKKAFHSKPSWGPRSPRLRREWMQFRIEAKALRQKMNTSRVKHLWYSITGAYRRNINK

CAATCH1 (msCAATCH1) [1] = target: T2, CAATCH1 (msCAATCH1) (Manduca sexta, UniProt Q9U5A9); experiment: as above; type: cell-based; details: NaCl 98 mmol/L, pH 7.6, -60 mV
T2 construct: full-length transporter from cRNA in Xenopus laevis oocytes
T2 sequence (Q9U5A9 1-633): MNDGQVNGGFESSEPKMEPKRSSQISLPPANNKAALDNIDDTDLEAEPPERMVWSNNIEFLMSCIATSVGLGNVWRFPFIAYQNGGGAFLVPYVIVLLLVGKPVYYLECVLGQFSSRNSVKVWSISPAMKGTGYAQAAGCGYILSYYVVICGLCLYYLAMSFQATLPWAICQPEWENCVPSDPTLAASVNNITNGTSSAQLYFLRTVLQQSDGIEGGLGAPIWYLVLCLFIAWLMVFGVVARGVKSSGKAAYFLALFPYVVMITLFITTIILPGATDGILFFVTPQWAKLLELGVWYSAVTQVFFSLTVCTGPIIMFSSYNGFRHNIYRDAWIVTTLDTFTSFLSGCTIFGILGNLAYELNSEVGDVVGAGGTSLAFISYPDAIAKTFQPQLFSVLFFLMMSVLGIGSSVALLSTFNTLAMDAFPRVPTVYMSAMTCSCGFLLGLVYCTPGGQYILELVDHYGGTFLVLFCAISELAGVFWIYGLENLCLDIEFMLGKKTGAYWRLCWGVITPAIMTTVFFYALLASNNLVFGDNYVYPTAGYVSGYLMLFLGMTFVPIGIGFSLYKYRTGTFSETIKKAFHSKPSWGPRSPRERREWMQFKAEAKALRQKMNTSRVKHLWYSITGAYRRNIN

CAATCH1 (msCAATCH1) [2] = target: T2, CAATCH1 (msCAATCH1); experiment: two-electrode voltage clamp in oocytes, block of leak current; type: cell-based; details: NaCl 98 mmol/L, pH 7.6, -60 mV; blocker, not transported
[3] = substrate: CC(C)C[C@H](N)C(=O)O; experiment: two-electrode voltage clamp in oocytes, transport current; type: cell-based, Manduca sexta; details: NaCl 98 mmol/L, pH 7.6, -60 mV, 20-25 °C

CC(C)C[C@@H](N)C(=O)O [D‐leucine]
two-electrode voltage clamp in oocytes, transport current (KAAT1 (msKAAT1)): increasing concentrations of D‐leucine to the oocyte caused progressively larger transport currents
two-electrode voltage clamp in oocytes, transport current (CAATCH1 (msCAATCH1) [1]; 30-1000 μmol/L): The amplitude of the response to D‐leucine increases with the substrate concentration

N[C@H](CO)C(=O)O [D‐serine]
two-electrode voltage clamp in oocytes, transport current (CAATCH1 (msCAATCH1) [1]): the D‐enantiomer gives rise to a large current

CC(C)C[C@H](N)C(=O)O [L‐leucine]
two-electrode voltage clamp in oocytes, block of leak current (CAATCH1 (msCAATCH1) [2]): L‐leucine produces an apparent outward current, actually representing a block of the leak current

N[C@@H](CO)C(=O)O [L‐serine]
two-electrode voltage clamp in oocytes, block of leak current (CAATCH1 (msCAATCH1) [2]): has a blocking effect similar to that of L‐leucine

B1: KAAT1 (msKAAT1) (Manduca sexta) (protein)
chain: MNDGQVNGGFESSEPKMEPKRSSQISLPPANLKATMDNIDDMDLEAEPPERMVWSNNIEFLMSCIATSVGLGNVWRFPFIAYQNGGGAFLVPYIIVLLLVGKPVYYLECVLGQFSSRNSVKIWSISPAMKGTGYAQAVGCGYILSYYVVICGLCLFYLAMSFQATLPWAICQPEWENCVPSDPTLAAGVGNITNGTSSAELYFLRTVLQQSDGIEGGLGAPIWYLVLCLFIAWLMVFGVVARGVKSSGKAAYFLALFPYVVMITLFITTVLLPGATDGILFFVTPDWWKLLELGVWYAAITQVFFSLSVCTGAIIMFSSYNGFKQNVYRDALIVTTLDTFTSFLSGCTIFGILGNLAYELNSDVGDVIGSGGTSLAFISYPDAIAKTFQPQLFSVLFFLMMSVLGIGSSVALLSTLNTVVMDAFPRVPTVYMSALSCTCGFLLGLVYCTPGGQFILELVDHYGGTFLVLFCAISELAGVFWIYGLENLCLDIEFMMGKTTGFYWRLCWGIVTPGMMIIVFIYALLSFENLVFGDFYVYPVAGYVAGYMMLFLGIVLVPIGIVVTLYKYRTGNFRETVKKAFHSKPSWGPRSPRLRREWMQFRIEAKALRQKMNTSRVKHLWYSITGAYRRNINK
notes: full-length transporter from cRNA in Xenopus laevis oocytes
K0.5 [3]: 10 µmol/L
